According to patent US8859783B2, “Indirubin-3′-oxime derivatives as potent cyclin dependent kinase inhibitors” (Anygen Co., Ltd., priority 2010, dated 2014):
Entries after “also recorded” stand apart in the source; their conditions may differ.

How the values were obtained:
[1] = test system: A549 human lung cancer cell; experiment: SRB cell proliferation assay, A549; type: cell-based; conditions: A549, 72 h, 3 days
Description: (§1) ^a A series of indirubin derivatives were tested at five concentrations for their effects on various human cancer cell lines using SRB assay, as described in the Experimental Section.
(§2) Cells (A549, HT1080, HCT116, K562, SNU638, KB, MCF-7) were counted, diluted to 5×10^4 cells/mL with fresh medium (MEME, DMEM or RPMI containing 10% FBS), and added 190 μL of cell suspension to 96-well plates containing various concentrations of test compounds (10 μL in 10% aqueous DMSO). Test plates were incubated for 3 days at 37° C. in CO2 incubator. For zero day controls, cells were incubated for 30 min at 37° C. in CO2 incubator. All treatments were performed in triplicate. After the incubation periods, cells were fixed with 50 μL of cold 50% TCA at 4° C. for 30 min, washed 5 times with tap water, and air-dried. The fixed cells were stained with 0.4% SRB solution in 1% aqueous acetic acid at room temperature for 1 h. Free SRB solution was then removed by rinsing 5 times with 1% acetic acid, and air-dried. The bound dye was dissolved with 200 µL of 10 mM Tris-base (pH 10.0), and absorbance was determined at 515 nm using an ELISA microplate reader. Finally, the absorbance values obtained with each of the treatment procedures were averaged, and the average values obtained with the zero day control were subtracted.

[2] = test system: HT1080 human fibro sarcoma cell; experiment: SRB cell proliferation assay, HT1080; type: cell-based; conditions: HT-1080, 72 h, 3 days
Description: as §1, §2

[3] = test system: HCT116 human colon cancer cell; experiment: SRB cell proliferation assay, HCT116; type: cell-based; conditions: 3 days
Description: as §1, §2

[4] = test system: K562 human leukemia cell; experiment: SRB cell proliferation assay, K562; type: cell-based; conditions: K562, 72 h, 3 days
Description: as §1, §2

[5] = test system: SNU638 human stomach cancer cell; experiment: SRB cell proliferation assay, SNU638; type: cell-based; conditions: SNU-638, 72 h, 3 days
Description: as §1, §2

[6] = test system: KB human nasopharyngeal cancer cell; experiment: SRB cell proliferation assay, KB; type: cell-based; conditions: 72 h, 3 days
Description: as §1, §2

[7] = test system: MCF-7 human breast cancer cell; experiment: SRB cell proliferation assay, MCF-7; type: cell-based; conditions: MCF7, 72 h, 3 days
Description: as §1, §2

[8] = test system: CDK1; conditions: from a report; read-out: CDK1 inhibitory activity IC50; cited from earlier work
[9] = target: T1, CDK2/cyclin E (Homo sapiens, UniProt P24941); experiment: CDK2/cyclin E kinase assay; type: biochemical; conditions: ten concentrations, dose response curves; read-out: CDK2/cyclin E inhibitory activity IC50
T1 construct: purchased Milipore (Billerica, Mass.)
Description: CDK1/cyclin B, CDK2/cyclin E were purchased from Milipore (Billerica, Mass.). The kinase activity was tested in buffer (8 mM MOPS pH 7.0, 0.2 mM EDTA, 10 mM MgAcetate), with 0.1 mg/mL histone H1, in the presence of 45 µM [—^33P] ATP (500 cpm/pmol) for CDK1 or 120 μM [γ—^33P] ATP (500 cpm/pmol) for CDK2 in a final reaction volume of […]. The reaction was initiated by the addition of the MgATP mix. After incubation for 40 min at 30° C., the reaction was stopped by the addition of 5 μL of 3% phosphoric acid solution. 10 μL aliquots of supernatant were spotted onto 2.5 cm×3 cm pieces of Whatman […] phosphocellulose paper, and 20 s later, the filters were washed three times for 5 min in 75 mM phosphoric acid and once in methanol prior to drying. The […] filters were counted in the presence of 1 mL of ACS (Amersham) scintillation fluid. The activities are usually expressed as a percentage of the maximal activity, i.e., in the absence of inhibitors. Controls were applied with appropriate dilutions of DMSO.

[10] = target: CDK1/cyclin B (Homo sapiens, UniProt P06493); experiment: CDK1/cyclin B kinase assay; type: biochemical; conditions: read-out: IC50 in CDK1/cycline B kinase assay
Chain of CDK1/cyclin B (P06493 whole entry): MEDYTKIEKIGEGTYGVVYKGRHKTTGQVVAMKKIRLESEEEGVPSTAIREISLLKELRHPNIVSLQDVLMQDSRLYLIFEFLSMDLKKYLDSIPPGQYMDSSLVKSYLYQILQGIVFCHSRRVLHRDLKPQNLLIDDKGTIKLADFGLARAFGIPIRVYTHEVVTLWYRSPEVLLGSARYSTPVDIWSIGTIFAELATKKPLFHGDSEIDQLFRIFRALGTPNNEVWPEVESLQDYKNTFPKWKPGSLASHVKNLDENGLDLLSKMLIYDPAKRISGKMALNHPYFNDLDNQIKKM
Chain of CDK1/cyclin B (P14635 whole entry partner): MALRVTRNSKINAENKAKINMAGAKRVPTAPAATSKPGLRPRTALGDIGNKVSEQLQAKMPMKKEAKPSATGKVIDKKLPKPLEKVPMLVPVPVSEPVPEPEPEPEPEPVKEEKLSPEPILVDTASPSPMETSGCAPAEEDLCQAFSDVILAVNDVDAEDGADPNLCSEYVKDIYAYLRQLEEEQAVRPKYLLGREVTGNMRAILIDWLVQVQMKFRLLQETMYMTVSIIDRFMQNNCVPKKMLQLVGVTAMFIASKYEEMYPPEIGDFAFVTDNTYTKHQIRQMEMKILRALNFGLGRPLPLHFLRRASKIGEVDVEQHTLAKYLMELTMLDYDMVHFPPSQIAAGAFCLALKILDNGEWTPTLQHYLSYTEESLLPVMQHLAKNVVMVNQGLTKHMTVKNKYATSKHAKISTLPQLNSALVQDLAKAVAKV
Source text: The reaction was initiated by the addition of the MgATP mix.

[11] = target: T2, IKKβ (Homo sapiens, UniProt O14920); experiment: HTRF kinase assay, IKKβ; type: biochemical; conditions: dose response curves; read-out: IC50 against IKKβ
T2 construct: Recombinant proteins containing kinase domain were purchased from Millipore (Billerica, Mass.); purchased Millipore (Billerica, Mass.)
T2 sequence (O14920 15-300 limits assumed): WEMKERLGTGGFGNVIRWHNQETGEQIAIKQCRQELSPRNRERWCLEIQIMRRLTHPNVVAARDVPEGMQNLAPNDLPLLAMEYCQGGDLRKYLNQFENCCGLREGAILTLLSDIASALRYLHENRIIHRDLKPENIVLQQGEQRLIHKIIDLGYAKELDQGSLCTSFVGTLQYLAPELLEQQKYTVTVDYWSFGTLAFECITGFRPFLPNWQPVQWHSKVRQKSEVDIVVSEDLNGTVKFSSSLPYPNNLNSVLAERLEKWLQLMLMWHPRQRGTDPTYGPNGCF
Description: (§3) Inhibition of kinase activity against a variety of recombinant kinases (c-Met, Met M1250T, Ron, VEGF2, EGFR, TrkA, PI3Kγ, IKKβ Insulin receptor, Aurora A) was measured using homogeneous time-resolved fluorescence (HTRF) assays. Briefly, assays are based on the phosphorylation of peptide substrates in the presence of ATP. Resulting phosphorylated substrates are detected by TR-FRET (Time Resolved-Fluorescence Resonance Energy Transfer) signal. Recombinant proteins containing kinase domain were purchased from Millipore (Billerica, Mass.). Optimal enzyme, ATP, and substrate concentrations were established for each enzyme using HTRF KinEASE kit (Cisbio) according to the manufacturer's instruction. Assays are consisted of enzymes mixed with serially diluted compounds and peptide substrates in kinase reaction buffer (250 mM HEPES (pH 7.0), 0.5 mM orthovanadate, 0.05% BSA, 0.1% NaN3). Following the addition of reagents for detection, TR-FRET signal was measured using EnVision multi-label reader (Perkin Elmer, Waltham, Mass.).

[12] = target: T3, TrkA (Homo sapiens, UniProt P04629); experiment: HTRF kinase assay, TrkA; type: biochemical
T3 construct: Recombinant proteins containing kinase domain were purchased from Millipore (Billerica, Mass.); purchased Millipore (Billerica, Mass.)
T3 sequence (P04629 510-781 limits assumed): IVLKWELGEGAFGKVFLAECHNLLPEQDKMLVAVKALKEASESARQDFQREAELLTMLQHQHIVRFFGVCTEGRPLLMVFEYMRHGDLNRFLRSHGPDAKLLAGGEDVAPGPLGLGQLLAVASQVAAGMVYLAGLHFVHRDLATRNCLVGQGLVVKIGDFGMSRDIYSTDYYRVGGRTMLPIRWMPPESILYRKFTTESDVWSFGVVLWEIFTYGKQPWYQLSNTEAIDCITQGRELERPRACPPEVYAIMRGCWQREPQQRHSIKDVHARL
Description: as §3

[13] = test system: T4, c-Met, Met M1250T, Ron, VEGF2, EGFR, TrkA, PI3Kγ, IKKβ Insulin receptor, Aurora A; experiment: Kinase panel screening (HTRF); type: biochemical; conditions: 10 μM
T4 construct: other: 10 μM
Description: as §3

[14] = test system: several human cancer cell lines; experiment: SRB cell proliferation assay, summary over cell lines; type: cell-based; conditions: Homo sapiens, range over cell lines; read-out: anti-proliferative IC50, range over cancer cell lines
Description: as §1, §2

[15] = Tumor xenograft animal model, body weight; type: in vivo, SD rats; conditions: 5 mg/kg i.v. every other day, five times
Source text: The k-ras-transformed rat kidney epithelial cell line (RK3E-ras) were maintained in DMEM supplemented with 10% FCS, 100 units/mL penicillin, and 100 Ag/mL streptomycin. RK3E-ras cells were kindly provided by Dr. Eric Fearon (University of Michigan Medical School, Ann Arbor, Mich.) and have been described in the previous report. Male SD rats (6 weeks of age) were used to examine the inhibition of tumor growth in vivo. RK3E-ras-Luc cells (5×10^6) were implanted subcutaneously into the flank of the rats on Day 0, and rats were grouped randomly (5 […]/group) on Day 5 as previously described. […] The animals were sacrificed 48 hr after the final administration, and rat weights and tumor volumes were measured. The tumor growth volumes were calculated as follows: V=(ab^2)/2, where, a is the longest diameter and b is the shortest diameter of the tumor. All experiments were conducted under protocols approved by the Animal Care and Use Committee at Chosun University School of Dentistry (Gwangju, South Korea).

[16] = test system: RK3E-ras-Luc cells; experiment: In vivo bioluminescence imaging assay; parameters: species or system SD rats; conditions: day 10 after treatment, 5 mg/kg i.v.
Source text: For bioluminescence imaging, the rats received an i.p. injection of luciferin (Molecular Probes, Palo Alto, Calif.) with Rumpun/ketamine (1:1) anesthesia. The rats were imaged using a LAS-1000 plus imaging System (Fuji film. Tokyo. Japan) to record the bioluminescent signal emitted from the tumor. The LAS-1000 system equipped with a CCD camera was used for acquisition of the emitted light, and Living Image software (Multi Gauge v3.0) was used for data analysis.

[17] = test system: RK3E-ras-Luc cells; experiment: Histology (H&E) of tumor tissue; type: in vivo, SD rats; conditions: 5 mg/kg i.v.
Description: (§4) The excised solid tumors were fixed in 10% buffered formalin and embeddedin paraffin. For optical microscopic examinations, 4-μm sectioned tissues were stained with H&E. Immunohistochemical staining was performed with the avidin-biotin complex method using anti-PCNA antibodies. The immune reactions were visualized with 3,3′-diaminobenzidine and counterstained with Mayer's hematoxylin. A TUNEL assay was performed using an ApopTag PlusPeroxidase In Situ Apoptosis Detection kit (Intergen, Purchase, N.Y.) according to the manufacturer's instructions. Briefly, the slides were deparaffinized and treated with 20 μg/mL proteinase K at 37° C. for 15 min to enhance staining. After immersion 3% hydrogen peroxide to block the endogenous peroxidase, the slides were incubated with a reaction buffer containing terminal de-oxynucleotidyl transferase at 37° C. for 1 h. The slides were then incubated with a peroxidase-conjugated anti-digoxigenin antibody for 30 min, and the reaction products were visualized with a 0.03% 3,3′-diaminobenzidine solution containing 2 mM hydrogen peroxide. The slides were counterstained with 0.5% methyl green.

[18] = test system: RK3E-ras-Luc cells; experiment: TUNEL assay on tumor sections; type: in vivo, SD rats; conditions: 5 mg/kg i.v.
Description: as §4

[19] = test system: PCNA; experiment: Immunohistochemical staining for PCNA in tumor; type: in vivo, SD rats; conditions: 5 mg/kg i.v.
Description: as §4

IC50 [1] [nM] | IC50 [2] [nM] | IC50 ([3]; Homo sapiens, HCT-116, 72 h) [nM] | IC50 [4] [nM] | IC50 [5] [nM] | IC50 [6] [nM] | IC50 [7] [nM] | SMILES | IC50 [9] [nM] | inhibitory activity against kinase panel [13] | other results
16900 | 1450 | 450 | 770 | 1140 | 1160 | 950 | O=C1Nc2ccc([N+](=O)[O-])cc2C1=C1Nc2ccc(Br)cc2C1=NO [Compound 2, 5′-Bromo-5-nitro-indirubin-3′-oxime, reference compound] |  |  | IC50 [8]: 190 nM
15600 | 1250 | ~300 | 560 | 1160 | 1100 | 500 | O=C1Nc2ccc([N+](=O)[O-])cc2/C1=C1/Nc2ccc(Cl)cc2C1=NO [Compound 12b, (2′Z, 3′E)-5′-Chloro-5-nitro-indirubin-3′-oxime] | 23.5 | negligible inhibitory activities | IC50 [3]: 330 nM

SMILES | IC50 [1] [nM] | IC50 [2] [nM] | IC50 ([3]; Homo sapiens, HCT-116, 72 h) [nM] | IC50 [4] [nM] | IC50 [5] [nM] | IC50 [6] [nM] | IC50 [7] [nM] | IC50 [9] [nM] | inhibitory activity against kinase panel [13] | other results
O=C1Nc2ccc([N+](=O)[O-])cc2/C1=C1/Nc2ccc(O)cc2C1=NO [Compound 11b, (2′Z, 3′E)-5′-Hydroxy-5-nitro-indirubin-3′-oxime] |  |  |  |  |  | 1300 | 1200 | 1.91 | weak inhibitory activity only against Aurora A, IKKβ and TrkA | IC50 [10]: 13 nM; IC50 [11]: 10000 nM; inhibition at 1 µM ([12]; 1 μM, read-out: inhibitory activity against TrkA): 9%; IC50 ([12]; dose response curves, read-out: IC50 against TrkA): 4000 nM; IC50 [14]: 200 to 3300 nM; body weight compared with control [15]: without loss of body weight; also recorded: no significant difference in body weight; luminescence intensity (indicator of tumor growth) [16]: significantly decreased; histological analysis of treated tumor [17]: extensive cell death; TUNEL-positive apoptotic cells compared with control tissue [18]: about 6.0 fold; expression level of PCNA compared with control [19]: decreased
